Test results reported in PubChem BioAssay (NCI).
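Following 48 hours of exposure in 96-well plates, responses at five concentrations were used to interpolate endpoints linearly. GI50 is the concentration that inhibits growth by half. TGI: concentration producing complete growth inhibition.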

Legend:
Experiment in all cases: inhibition of tumour cell growth, NCI panel, 48 h
[1] = system: PC-3 prostate
[2] = system: TK-10 renal
[3] = system: CCRF-CEM leukemia
[4] = system: CAKI-1 renal
[5] = system: SF-295 CNS
[6] = system: SK-MEL-5 melanoma
[7] = system: UACC-62 melanoma
[8] = system: HOP-62 NSCLC
[9] = system: RPMI-8226 leukemia
[10] = system: HL-60(TB) leukemia

| SMILES | TGI [1] [µM] | TGI [2] [µM] | TGI [3] [µM] | TGI [4] [µM] | TGI [5] [µM] | TGI [6] [µM] | TGI [7] [µM] | TGI [8] [µM] | TGI [9] [µM] | TGI [10] [µM] | GI50 [9] [nM] | GI50 [1] [nM] | GI50 [2] [µM] | GI50 [3] [nM] | GI50 [5] [nM] | GI50 [6] [nM] | GI50 [7] [µM] | GI50 [8] [µM] |
| --- | --- | --- | --- | --- | --- | --- | --- | --- | --- | --- | --- | --- | --- | --- | --- | --- | --- | --- |
| COc1cc(/C=C2/C[C@H]3[C@@H]4CC=C5C[C@@H](OC(C)=O)CC[C@]5(C)[C@H]4CC[C@]3(C)NC2=O)cc(OC)c1OC | 44.3 | 83.3 | > 100 | > 100 | 65.9 | > 100 | 47 | 73.1 | – | – | – | – | – | – | – | – | – | – |
| CC1(c2ccc[n+](Cc3ccccc3)c2)OCCO1 | – | > 100 | > 100 | > 100 | > 100 | > 100 | > 100 | > 100 | > 100 | > 100 | – | – | – | – | – | – | – | – |
| O=C1C(=O)c2ccccc2C(O)=C1CCCc1ccc(Oc2ccccc2)cc1 | – | > 100 | > 100 | 70.5 | 74.3 | 10.6 | 15 | 23.2 | > 100 | 47.9 | – | – | – | – | – | – | – | – |
| N#CC(c1nc2ccccc2nc1Cl)S(=O)(=O)c1ccccc1 (stereo not drawn) | – | > 100 | > 100 | > 100 | – | > 100 | > 100 | > 100 | > 100 | > 100 | – | – | – | – | – | – | – | – |
| O=C(Cn1c(C(=O)/C=C/c2cccs2)nc2ccccc21)c1ccc(Cl)cc1 | – | 89.5 | – | – | – | 43.3 | > 100 | > 100 | 29.3 | 61.3 | – | – | – | – | – | – | – | – |
| O=c1cc(N2CCN(c3cc(=O)n4ccccc4n3)CC2)oc2ccccc12 | > 100 | > 100 | > 100 | > 100 | > 100 | > 100 | > 100 | – | 90.5 | – | – | – | – | – | – | – | – | – |
| COc1ccc2c(c1)c(CC(=O)O)c(C)n2C(=O)c1ccc(Cl)cc1 | > 100 | > 100 | > 100 | > 100 | > 100 | > 100 | – | > 100 | > 100 | > 100 | – | – | – | – | – | – | – | – |
| Cc1cc(N2CCCC2)nc(N(CCNc2ccnc3cc(Cl)ccc23)Cc2ccco2)n1 | > 100 | 31.3 | > 100 | – | 16.1 | 3.28 | 78.2 | 30 | 4.5 | – | 2020 | 2840 | 5.46 | 2850 | 2070 | 1780 | 4.11 | 5.64 |
| C#CCSC(C=C=C)P(=O)(OC(C)C)OC(C)C (stereo not drawn) | > 100 | > 100 | – | > 100 | > 100 | > 100 | > 100 | > 100 | > 100 | > 100 | – | – | – | – | – | – | – | – |
| CC1(C)C2C=CC1(C)C1(CC2)OCCO1 (stereo not drawn) | > 100 | > 100 | > 100 | – | > 100 | – | > 100 | > 100 | > 100 | > 100 | – | – | – | – | – | – | – | – |
| O=C1c2cc3c(cc2CC12Cc1ccc4c(c1C2=O)CCCC4)CCCC3 (stereo not drawn) | > 100 | > 100 | > 100 | > 100 | > 100 | > 100 | – | > 100 | > 100 | > 100 | – | – | – | – | – | – | – | – |
| COc1ccc(C2=NN(c3ccccc3)C[N+](c3ccc(OC)cc3)=N2)cc1 | – | > 100 | 83.4 | – | > 100 | 29.8 | – | > 100 | 67.5 | > 100 | – | – | – | – | – | – | – | – |
| NNC(=O)Cn1c2ccc(Br)cc2c2nc3ccccc3nc21 | > 100 | > 100 | – | > 100 | > 100 | > 100 | > 100 | 89.8 | > 100 | – | – | – | – | – | – | – | – | – |
| O=c1[nH]nc(-c2ccccc2)n1/N=C/c1cccnc1 | > 100 | > 100 | > 100 | 72.4 | > 100 | > 100 | – | > 100 | > 100 | > 100 | – | – | – | – | – | – | – | – |
| CC[N+]1(C)CCC(O)(c2ccc(Cl)c(Cl)c2)C(C(=O)c2ccc(Cl)c(Cl)c2)C1 (stereo not drawn) | > 10 | > 10 | 5.98 | > 10 | > 10 | > 10 | – | > 10 | > 10 | > 10 | – | – | – | – | – | – | – | – |
| CCOc1cc(C2CC(c3ccc(NS(=O)(=O)c4cc([N+](=O)[O-])ccc4C)cc3)=NN2c2ccc([N+](=O)[O-])cc2[N+](=O)[O-])ccc1O (stereo not drawn) | 64.7 | 33.7 | > 100 | 56.5 | 41.1 | 23.1 | – | 27.3 | > 100 | > 100 | – | – | – | – | – | – | – | – |
| COc1ccc(/C=C2\S/C(=N/Nc3nc(-c4ccccc4)cs3)NC2=O)cc1OC | 52.6 | 59.4 | 22.3 | > 100 | 86.3 | 31.2 | 74.5 | > 100 | – | 22 | – | – | – | – | – | – | – | – |
| CCN(CC)c1ccc2cc(C(=O)Nc3cccc4ccccc34)c(=N)oc2c1 | > 100 | > 100 | > 100 | > 100 | > 100 | > 100 | > 100 | – | > 100 | > 100 | – | – | – | – | – | – | – | – |
| COc1ccc(-c2cc(-c3cc4cc(Br)ccc4nc3Cl)c(C#N)c(N)n2)cc1 | > 12.5 | – | > 12.5 | > 12.5 | > 12.5 | > 12.5 | – | > 12.5 | > 12.5 | > 12.5 | – | – | – | – | – | – | – | – |
| CN1CCN(CCCBr)CC1 | > 100 | > 100 | > 100 | – | > 100 | > 100 | > 100 | > 100 | > 100 | > 100 | – | – | – | – | – | – | – | – |
| CC1CC/C(=C\c2ccc(Cl)cc2)C2OC(N)=C(C#N)C(c3ccc(Cl)cc3)=C12 (stereo not drawn) | 28.4 | 41.3 | 31.2 | 31.2 | – | 32.1 | 31 | 9.84 | 29.2 | 27.4 | – | – | – | – | – | – | – | – |
| C/C=C(/C)C(=O)O[C@H](C[C@@H](C)[C@H]1CC(c2ccoc2)OC1=O)[C@@]1(C)C(=O)CCC2O[C@]21C (stereo partly drawn) | > 100 | > 100 | > 100 | > 100 | > 100 | > 100 | > 100 | – | > 100 | > 100 | – | – | – | – | – | – | – | – |
| N#Cc1c(-c2ccc(Cl)cc2)c2c(n(C3OC(CO)C(O)C(O)C3O)c1=S)CCC2 (stereo not drawn) | > 100 | > 100 | 56.7 | > 100 | – | 26 | 34 | 57 | > 100 | > 100 | – | – | – | – | – | – | – | – |
